Patent US11053226B2, “KRAS G12C inhibitors and methods of using the same” (Amgen Inc., priority 2018, dated 2021)
Where two headings read alike, the source gives them in different places.

How the values were obtained:
[1] = test system: Phosphorylation of ERK1/2 in MIA PaCa-2 cells; test: Phospho-ERK1/2 MSD Assay; format: cell-based; conditions: Homo sapiens, MiaPaCa-2 cells
Protocol: (§1) For compounds in Table 9, the following assay conditions were employed:
Phospho-ERK1/2 MSD Assay:
Sixteen hours prior to compound treatment, MIA PaCa-2 cells were seeded in 96-well cell culture plates at a density of 25,000 cells/well and incubated at 37° C., 5% CO2. […] Following compound treatment, cells were stimulated with 10 ng/mL EGF (Roche 11376454001) for 10 min, washed with ice-cold Dulbecco's phosphate-buffered saline, no Ca^2+ or Mg^2+ (ThermoFisher Scientific 14190144), and then lysed in RIPA buffer (50 mM Tris-HCl pH 7.5, 1% Igepal, 0.5% sodium deoxycholate, 150 mM NaCl, and 0.5% sodium dodecyl sulfate) containing protease inhibitors (Roche 4693132001) and phosphatase inhibitors (Roche 4906837001). […] Assay plates were read on a Meso Scale Discovery Sector Imager 6000, and data were analyzed using a 4-parameter logistic model to calculate IC50 values.

[2] = test system: Phosphorylation of ERK1/2 in A549 cells; test: Phospho-ERK1/2 MSD Assay (A549); format: cell-based; conditions: Homo sapiens
[3] = target: GDP-bound KRAS protein (aa 1-169), containing both G12C and C118A amino acid substitutions (Homo sapiens (Human), UniProt P01116, C118A/G12C); test: Coupled Nucleotide Exchange Assay; format: biochemical
Protocol: as §1
Coupled Nucleotide Exchange Assay:
The assay plates were then read on a PerkinElmer EnVision Multilabel Reader, using AlphaScreen® technology, and data were analyzed using a 4-parameter logistic model to calculate IC50 values.

[4] = MIA PaCa-2, read-out: pERK IC50 (4 h), 4 h compound treatment
[5] = read-out: pERK IC50 (4 h), 4 h compound treatment
[6] = read-out: Coupled Exchange IC50 (2 h), 2 h compound pre-incubation
[7] = read-out: Coupled Exchange IC50 (20 h), 20 h compound pre-incubation
[8] = MIA PaCa-2, 4 h, read-out: pERK IC50 (4 h, MiaPaCa-2), 4 h compound treatment
[9] = A549, 4 h, read-out: pERK IC50 (4 h, A549), 4 h compound treatment
[10] = read-out: Coupled Exchange IC50 (5 min), 5 min compound pre-incubation

GDP-bound KRAS protein (aa 1-169), containing both G12C and C118A amino acid substitutions, sequence (P01116 other isoform, or with tags, fused parts or gaps G12C/C118A): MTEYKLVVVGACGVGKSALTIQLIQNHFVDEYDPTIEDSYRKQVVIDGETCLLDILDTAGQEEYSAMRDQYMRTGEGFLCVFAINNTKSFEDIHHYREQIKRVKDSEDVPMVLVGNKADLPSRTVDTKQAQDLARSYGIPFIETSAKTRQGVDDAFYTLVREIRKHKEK

Compound	IC50 [1, 4] [nM]	IC50 [2, 5] [nM]	IC50 [3, 6] [nM]	IC50 [3, 7] [nM]	IC50 [1, 8] [nM]	IC50 [2, 9] [nM]	IC50 [3, 10] [nM]	Coupled Exchange IC50 (5 min) ([3]; 5 min compound pre-incubation) [nM]	Coupled Exchange IC50 (2 h) ([3]; 2 h compound pre-incubation) [nM]
C=CC(=O)N1CC(NC(=O)Cn2c(C)c(-c3cccc4ncccc34)c3cc(Cl)ccc32)C1 [Example 147]	49600	> 100000	2600	520	–	–	–	–	–
C=CC(=O)N1CC(NC(=O)Cn2c(CC3CC3)c(C(=O)N3CCc4c(cccc4OC)C3)c3cc(Cl)cc(C)c32)C1 [Example 1-5, 2-(5-Chloro-2-(cyclopropylmethyl)-3-((5-methoxy-3,4-dihydro-2(1H)-isoquinolinyl)carbonyl)-7-methyl-1H-indol-1-yl)-N-(1-(2-propenoyl)-3-azetidinyl)acetamide]	–	–	80	–	150	> 100000	–	–	–
C=CC(=O)N1CC(N(C)C(=O)Cn2c(C)c(C(=O)N3CCN(c4ccc(C(F)(F)F)cn4)CC3)c3cc(Br)ccc32)C1 [Example 10]	–	–	820	–	1580	43400	–	–	–
C=CC(=O)N1CC(NC(=O)Cn2c(C3CC3)c(C(=O)N3CCCC(C)(C)C3)c3cc(Cl)cc(C)c32)C1 [Example 11]	–	–	660	–	1600	36400	–	–	–
C=CC(=O)N1CC(NC(=O)Cn2cc(C(=O)NCCC(=O)Nc3cccc4ccccc34)c3cc(Br)ccc32)C1 [Example 170]	–	–	3000	650	> 100000	> 100000	–	–	–
C=CC(=O)N1CC(NC(=O)Cn2c(C)c(-c3ccccc3C3CC3)c3cc(Cl)ccc32)C1 [Example 36]	3310	> 33300	710	200	–	–	–	–	–
C=CC(=O)N1CC(NC(=O)Cn2ccc3cc(Cl)cc(Cl)c32)C1 [Example 165]	> 100000	> 100000	13200	2650	–	–	–	–	–
C=CC(=O)N1CC(NC(=O)Cn2cc(-c3ccccc3-c3ccccc3)c3cc(Br)cc(C)c32)C1 [Example 62]	7060	> 33300	1180	250	–	–	–	–	–
C=CC(=O)N1CC(NC(=O)Cn2cc(-c3ccc(F)cc3F)c3cc(Br)ccc32)C1 [Example 137]	40400	16500	6900	1130	–	–	–	–	–
C=CC(=O)N1CC(NC(=O)Cn2cc(CNCc3ccccc3)c3cc(Br)ccc32)C1 [Example 136]	39600	36600	9850	1910	–	–	–	–	–
C=CC(=O)N1CC(NC(=O)Cn2c(C)c(-c3cccnc3OC(C)C)c3cc(Br)ccc32)C1 [Example 115]	28100	> 100000	2780	–	–	–	–	–	–
C=CC(=O)N1CC(NC(=O)Cn2cc(I)c3cc(Cl)ccc32)C1 [Example 139]	40600	> 100000	4150	520	–	–	> 250000	–	–
C=CC(=O)N1CC(NC(=O)Cn2c3ccccc3c3cc(Br)ccc32)C1 [Example 71]	10600	> 100000	3510	520	–	–	–	–	–
C=CC(=O)N1CC(NC(=O)Cn2c(CC)c(C(=O)N3CCc4c(cccc4OC)C3)c3cc(Cl)cc(C)c32)C1 [Example 1-2, 2-(5-Chloro-2-ethyl-3-((5-methoxy-3,4-dihydro-2(1H)-isoquinolinyl)carbonyl)-7-methyl-1H-indol-1-yl)-N-(1-(2-propenoyl)-3-azetidinyl)acetamide]	–	–	60	–	130	> 100000	–	–	–
C=CC(=O)N1CC(NC(=O)Cn2cc(C3CC3)c3ccc(-c4ccccc4Cl)cc32)C1 [Example 146]	47100	74200	3800	740	–	–	–	–	–
C=CC(=O)N1CC(NC(=O)Cn2cc(I)c3cc(Br)cc(C)c32)C1 [Example 153]	51800	> 100000	1580	260	–	–	–	–	–
C=CC(=O)N1CC(N(C)C(=O)Cn2c(CC)c(C(=O)N3CCc4c(ccnc4OC)C3)c3cc(Cl)cc(C)c32)C1 [Example 4-1, 2-(5-Chloro-2-ethyl-3-((5-methoxy-3,4-dihydro-2,6-naphthyridin-2(1H)-yl)carbonyl)-7-methyl-1H-indol-1-yl)-N-methyl-N-(1-(2-propenoyl)-3-azetidinyl)acetamide]	–	–	120	–	130	> 100000	–	–	–
C=CC(=O)N1CC(NC(=O)Cn2c(C)c(C(=O)N3[C@H](C)CN(c4ccc(C#N)cn4)C[C@H]3C)c3cc(Br)ccc32)C1 [Example 22]	–	–	190	–	2020	> 100000	–	–	–

Compound	IC50 [1, 4] [nM]	IC50 [2, 5] [nM]	IC50 [3, 6] [nM]	IC50 [3, 7] [nM]	IC50 [1, 8] [nM]	IC50 [2, 9] [nM]	IC50 [3, 10] [nM]	Coupled Exchange IC50 (5 min) ([3]; 5 min compound pre-incubation) [nM]	Coupled Exchange IC50 (2 h) ([3]; 2 h compound pre-incubation) [nM]
C=CC(=O)N1CC(NC(=O)Cn2cc(-c3ccccc3OC)c3cc(Br)ccc32)C1 [Example 151]	51200	14600	4330	920	–	–	–	–	–
C=CC(=O)N1CC(NC(=O)Cn2c(C)c(-c3ccccc3CN(C)C)c3cc(Cl)ccc32)C1 [Example 32]	2730	> 100000	6050	–	–	–	202000	–	–
C=CC(=O)N1CC(NC(=O)Cn2c(C)c(C(=O)N3CCc4c(cccc4OC)C3)c3cc(Br)ccc32)C1 [Example 13]	–	–	300	110	1680	> 100000	–	–	–
C=CC(=O)N1CC(N(C)C(=O)Cn2c(C)c(C(=O)N3CCN(c4ccc(Br)cn4)CC3)c3cc(Br)ccc32)C1 [Example 21]	–	–	490	100	1950	27300	–	–	–
C=CC(=O)N1CC(NC(=O)Cn2c(C)c(C(=O)N3CCc4c(ccnc4OC)C3)c3cc(Br)ccc32)C1 [Example 12]	–	–	510	170	1650	> 100000	–	–	–
C=CC(=O)N1CC(NC(=O)Cn2c(C)c(-c3cncnc3C(C)C)c3cc(Cl)ccc32)C1 [Example 5-2, 2-(5-Chloro-2-methyl-3-(4-(2-propanyl)-5-pyrimidinyl)-1H-indol-1-yl)-N-(1-(2-propenoyl)-3-azetidinyl)acetamide]	1490	> 100000	1050	–	–	–	–	–	–
C=CC(=O)N1CC(N(C)C(=O)Cn2c(C3CC3)c(C(=O)N3CCN(c4ccc(C#N)cn4)CC3)c3cc(Cl)cc(C)c32)C1 [Example 19]	–	–	610	–	1870	> 100000	–	–	–
C=CC(=O)N1CC(NC(=O)Cn2c(CC)c(C(=O)N3CCc4c(ccnc4OC)C3)c3cc(Cl)cc(C)c32)C1 [Example 1-1, 2-(5-Chloro-2-ethyl-3-((5-methoxy-3,4-dihydro-2,6-naphthyridin-2(1H)-yl)carbonyl)-7-methyl-1H-indol-1-yl)-N-(1-(2-propenoyl)-3-azetidinyl)acetamide]	–	–	–	–	90	> 100000	–	200	70
C=CC(=O)N1CC(NC(=O)Cn2cc(C(=O)N3CCc4c(cccc4OC)C3)c3cc(Br)ccc32)C1 [Example 76]	–	–	640	170	11400	> 100000	–	–	–
C=CC(=O)N1CC(NC(=O)Cn2cc(C(=O)N3CCc4c(Br)cc(C)cc4C3)c3cc(Cl)cc(Cl)c32)C1 [Example 92]	–	–	390	180	16500	> 100000	–	–	–
C=CC(=O)N1CC(N(C)C(=O)Cn2cc(C(=O)N3CCc4c(cccc4OC)C3)c3cc(Br)ccc32)C1 [Example 107]	–	–	590	180	23100	> 100000	–	–	–
C=CC(=O)N1CC(NC(=O)Cn2cc(C(=O)N3CCc4c(C)cccc4C3)c3cc(Cl)cc(Cl)c32)C1 [Example 74]	–	–	220	170	11100	> 100000	–	–	–
C=CC(=O)N1CC(NC(=O)Cn2c(C)c(C(=O)N3[C@H](C)Cc4c(OC)cccc4[C@H]3C)c3cc(Br)cc(C)c32)C1 (stereo in doubt) [Example 2-3]	–	–	160	–	670	51700	–	–	–
C=CC(=O)N1CC(N(C)C(=O)Cn2c(CC3CC3)c(C(=O)N3CCc4c(cccc4OC)C3)c3cc(Cl)cc(C)c32)C1 [Example 4-4, 2-(5-Chloro-2-(cyclopropylmethyl)-3-((5-methoxy-3,4-dihydro-2(1H)-isoquinolinyl)carbonyl)-7-methyl-1H-indol-1-yl)-N-methyl-N-(1-(2-propenoyl)-3-azetidinyl)acetamide]	–	–	100	–	180	29300	–	–	–
C=CC(=O)N1CC(NC(=O)Cn2cc(C(=O)N3CCc4c(C)cccc4C3)c3cc(Br)cc(C)c32)C1 [Example 94]	–	–	210	130	16600	> 100000	–	–	–
C=CC(=O)N1CC(NC(=O)Cn2c3c(c4cc(Br)ccc42)CN(C(=O)OCc2ccccc2)CC3)C1 [Example 141]	42400	19300	7250	1510	–	–	–	–	–
C=CC(=O)N1CC(NC(=O)Cn2cc(C(=O)NCCC(=O)Nc3ccccc3CC)c3cc(Br)cc(C)c32)C1 [Example 177]	–	–	430	170	> 100000	> 100000	–	–	–
